Here are results for one compound from patent publication US9034303B2, “Neuroprotective and neuro-restorative iron chelators and monoamine oxidase inhibitors and uses thereof” (priority 2010, dated 2015).

Like-named read-outs stand apart in the source and are kept apart here.

This test has as its target rat brain MAO-A (Rattus norvegicus (Rat), UniProt P21396). The experiment in a line: In vitro inhibition of rat brain MAO-A (14C-5-HT substrate). The class given is biochemical. As to the method:
Rats are decapitated and the brains quickly taken into a weighted ice-cold sucrose buffer (0.32 M) and their weights determined. All subsequent procedures are performed at 0° C. The brains are homogenized in 0.32 M sucrose (one part tissue to 20 parts sucrose) in a Teflon glass homogenizer followed by the addition of sucrose buffer to a final concentration of 10% homogenate. The homogenates are centrifuged at 600 g for 15 min. The supernatant fractions are taken out and centrifuged at 4500 g for 30 min, the pellet diluted in 0.32 M sucrose buffer and kept frozen for later assaying of MAO. Protein concentration is determined with Bradford reagent at λ=595 nm, using BSA as a standard.
MAO-A and MAO-B activities are determined in rat brain homogenate in vitro following incubation with varying concentrations of the test compounds.
The activity of MAO-A and MAO-B was determined by the adapted method of Tipton & Youdim (Tipton K F, O'Sullivan J, Youdim M B, 1983, Encyclopedia of Neuroscience, 2004, G. Adelman and B. H. Smith, Elsevier). The test compound was added to a suitable dilution of the enzyme preparation (70 μg protein for MAO-B and 150 μg MAO-A assay) in 0.1 M phosphate buffer (pH 7.4). The mixture was incubated together with […], a specific inhibitor of MAO-B (for determination of MAO-A) or 0.05 M clorgylin, a specific inhibitor of MAO-A (for determination of MAO-B). Incubation was carried for 0.5 or 1 h at 37° C. before addition of ^14C-5-hydroxytryptamine binoxalate (5-HT) (100 or 400 μM) for determination of MAO-A, or ^14C-phenylethylamine (^14C-PEA) 100 or 400 μM for determination of MAO-B, and incubation continued for 30 min or 20 min, respectively. The reaction was stopped with 2 M ice-cold citric acid, and the metabolites were extracted and determined by liquid-scintillation counting in cpm units. […]
MAO-A and MAO-B activity was measured using radioactive substrates. The substrate for MAO-A was 5 HT and for MAO-B was PEA. When measuring the activity of MAO-A, the MAO-B activity was inhibited with deprenyl and when measuring the activity of MAO-B the activity of MAO-A was inhibited with clorgylin. Blank samples were produced using TCP to inhibit both of the enzymes. The metabolites were extracted to toluene and read in a β-counter. The results are expressed in relative activity and normalized to the amount of protein in the tissue.

Chain of rat brain MAO-A (P21396 whole entry): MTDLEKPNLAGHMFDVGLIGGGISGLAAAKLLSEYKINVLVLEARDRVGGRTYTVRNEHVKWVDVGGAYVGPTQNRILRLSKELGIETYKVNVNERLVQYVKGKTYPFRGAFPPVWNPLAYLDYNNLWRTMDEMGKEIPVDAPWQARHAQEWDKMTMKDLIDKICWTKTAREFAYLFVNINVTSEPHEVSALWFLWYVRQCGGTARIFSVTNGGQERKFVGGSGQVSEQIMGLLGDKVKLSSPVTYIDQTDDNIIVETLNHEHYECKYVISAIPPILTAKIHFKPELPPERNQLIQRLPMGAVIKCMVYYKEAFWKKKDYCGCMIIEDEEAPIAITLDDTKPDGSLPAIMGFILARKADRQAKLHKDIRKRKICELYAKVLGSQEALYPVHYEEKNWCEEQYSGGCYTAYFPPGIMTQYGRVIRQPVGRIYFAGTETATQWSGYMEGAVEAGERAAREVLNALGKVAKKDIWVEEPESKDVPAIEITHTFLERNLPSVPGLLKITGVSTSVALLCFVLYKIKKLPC

The term IC50 denotes the concentration that inhibits the measured activity by half. Take `C#CCN(C)CCc1ccc(O)c2ncccc12` [Compound 3, 5-[2-(methyl-2-propyn-1-ylamino)ethyl]-8-quinolinol]: the IC50 was 70 to 90 nM. For the same compound, the “Inhibition of rat brain MAO-A in vitro (in words)” value (rat brain) was “potent inhibitors”. Also, the half-maximal inhibitory concentration (IC50) (read-out: MAO-A IC50, estimated from the data in FIG. 1, rat brain MAO-A) was 70 to 90 nM.
